The text below walks through data of publication PMC11989212, “Experimental Conditions to Retrieve Intrinsic Cooperativity α Directly from Single Binding Assay Data Exemplified by the Ternary Complex Formation of FKBP12, MAPRE1 and Macrocyclic Molecular Glues” (International Journal of Molecular Sciences, 2025).

The term EC50 denotes the concentration that produces a half-maximal response. As a reminder, the Kd is the concentration at which binding is half-saturated.

The structures appear in SMILES notation. Where two headings read alike, the source gives them in different places.

The target in assay [1] is FKBP12 (Homo sapiens, UniProt P62942). As to the kind of experiment: Spectral shift target engagement assay, binary binding to FKBP12. The following applies: 40 nM FKBP12-NTA. The text has this:
(§1) Our method of choice is the spectral shift method, which monitors binding events on the target isothermally and in equilibrium via an environment-sensitive near-infrared fluorophore. In the case of target engagement, either the proximity of the ligand towards the dye or structural changes occurring in the target as a result of binding lead to a change in the chemical environment of the fluorophore. Those changes affect the physiochemical properties of the reporter fluorophore and translate into either blue or red shifts (or peak broadening) of emission peaks upon ligand binding, which can be sensitively monitored by simultaneously recording the fluorescence at two wavelengths (i.e., at 650 nm and 670 nm). Calculating the ratio between the two fluorescence channels then allows to monitor subtle emission shifts that occur as a result of target engagement. Affinity measurements can then be performed by recording the spectral shift as a function of ligand concentration.
(§2) Binding studies through FKBP12: To monitor the binding of R,--SLF-11 by the stronger binding FKBP12 in the absence and in the presence of 10 μM MAPRE1 via %Cbound, binary and %Cbound, ternary, respectively, the concentration of reversibly NTA-labeled FKBP12 was limited to [Ctot] = 40 nM. […] In contrast to the experimental setup in the previous two binding experiments with monitoring through the weaker binding protein MAPRE1, where the applied protein concentrations were optimally chosen, this is not the case for the binding experiment through the stronger binder FKBP12. First of all, the applied excess of T with [Ttot] = 10 μM is roughly 20000-fold off of the proposed 100 times KT,1 threshold, which would correspond to 180 mM. Only under such excess conditions of T can the equilibrium of forming TL under the constraint that all ligand L is bound to T be reached to ensure that [Ltot] approaches the “ligand” concentration [TL]. […] If KC,2 is sufficiently high, the 20 nM deviation to correct for the protein concentration could be neglected. However, the resulting calculated value for KC,2 is 0.023 nM, accounting for the cooperativity α = 10,405 and KC,1 = 234 nM as derived by the MAPRE1 experiment. This value is far below the applied protein concentration of [Ctot] = 40 nM and makes it infeasible to estimate KC,2 from the EC50 of the %Cbound, ternary curve. Consequently, the EC50 shifts, meaning the apparent cooperativity, from monitoring the binding by the stronger binding protein C are diverging from the underlying intrinsic cooperativity α. […] The deviation of calculated (254 nM/24.2 nM = 10.5) and measured apparent cooperativity (254 nM/66 nM = 3.8) can be explained by a negative cooperativity induced by the His6-NTA tag of FKBP12. Studies to lower [Ctot] and identify a better position for the spectral shift tag on FKBP12 are ongoing (Figure 6a).
(§3) His-tagged FKBP12 was labeled using the His-Tag Labeling Kit RED-tris-NTA 2nd Generation (MO-L018; NanoTemper Technologies GmbH). The affinity between NTA dye and the His-tag of FKBP12 was determined as 7 nM. MAPRE1 was labeled using the Protein Labeling Kit RED-NHS 2nd Generation (MO-L011; NanoTemper Technologies GmbH). In brief, 10 µM of MAPRE1 was incubated with a 3-fold molar excess of fluorophore for 30 min. The unreacted fluorophore was removed by performing a size exclusion purification (B-column). Collecting the protein fraction yielded 1.8 µM labeled MAPRE1, with a degree of labeling of 0.8, as determined on a Nanodrop.
(§4) A 1:2 dilution series of all compounds (starting from the 10 mM stock concentration) was prepared in pure DMSO. Each concentration was diluted 25-fold with assay buffer (20 mM HEPES, pH 7.4, 150 mM NaCl, 1 mM DTT (all from Carl Roth, Karlsruhe, Germany), and 0.01% Pluronic F-127 (Sigma Aldrich, Taufkirchen, Germany)). Next, 10 µL from each of the prepared ligand dilutions was transferred into an empty well on a Dianthus Microwell Plate (DI-P001A). […]

In assay [2] the target is FKBP12 in the presence of MAPRE1 (Homo sapiens, UniProt P62942+Q15691). As to the kind of experiment: Spectral shift target engagement assay, binding to FKBP12 in the presence of 10 μM MAPRE1 (ternary).
Excerpt: as §1, §2, §3, §4

The test system of assay [3] is FKBP12:R,S-SLF-X:MAPRE1 ternary complex. Further details: method as in PMID 40059881. The following applies: TR-FRET proximity assay, reported earlier; cited from earlier work.

FKBP12, sequence (P62942 whole entry, species assumed): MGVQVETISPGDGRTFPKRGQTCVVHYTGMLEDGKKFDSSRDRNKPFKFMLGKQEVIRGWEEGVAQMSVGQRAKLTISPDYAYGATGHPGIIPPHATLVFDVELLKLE
FKBP12 in the presence of MAPRE1, sequence (P62942 whole entry): as the sequence (P62942 whole entry, species assumed) above
FKBP12 in the presence of MAPRE1, sequence (Q15691 whole entry): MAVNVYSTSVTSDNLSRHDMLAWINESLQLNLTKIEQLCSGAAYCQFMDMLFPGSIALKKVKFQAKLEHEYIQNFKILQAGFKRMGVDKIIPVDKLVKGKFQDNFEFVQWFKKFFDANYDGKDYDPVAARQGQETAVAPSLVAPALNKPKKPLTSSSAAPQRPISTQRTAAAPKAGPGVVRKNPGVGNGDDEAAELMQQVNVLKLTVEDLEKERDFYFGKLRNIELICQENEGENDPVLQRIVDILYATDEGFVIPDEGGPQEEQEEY

`C=C1CCN2C(=O)COc3cccc(c3)C(CCc3ccc(OC)c(OC)c3)OC(=O)C3CCCCN3C(=O)C(=O)C(C)(C)COC(=O)C(CN)NC(=O)C2C1` (centres unmarked) [R,S-SLF-7]: the EC50 was 186 nM in assay [1] (no MAPRE1, read-out: EC50 of the %Cbound, binary curve); 110 nM in assay [2] (40 nM FKBP12-NTA, 10 μM MAPRE1, read-out: EC50 of the %Cbound, ternary curve (measured)); 48 nM in assay [2] (calculated with the model using α from MAPRE1 binding, read-out: calc EC50 of the %Cbound, ternary curve). Further, the Kd in assay [1] (KC,1 = EC50 − [Ctot]/2) worked out at 166 nM. Besides, in assay [3], the “TR-FRET Recruitment Assay (%Amax)” value is 45%.
